Like-named read-outs stand apart in the source and are kept apart here.
Experiments:
Experiment in all cases: minimum growth inhibitory concentration (MIC) method
Assay type in all cases: cell-based
[1] = tested on: Klebsiella pneumoniae (Horino); conditions: K. pneumoniae Horino, HIA medium, 37° C., 18 hours, sodium salts
Experimental: (§1) The antibacterial activities of the cephalosporins of this invention were measured using the sodium salts of the compounds obtained in Synthesis Examples 1 and 2. The procedure and the results are shown in Referential Example 1.
(§2) Carbenicillin sodium salt (CB-PC) and cephazoline sodium salt (CEZ) were used as controls.
(§3) The antibacterial activities of the test compounds against various Gram-positive and Gram-negative bacteria were determined in a customary manner by the minimum growth inhibitory concentration method (MIC method).
(§4) A commercially available heart infusion agar medium (to be abbreviated HIA medium) was used as an assay medium, and a commercially available trypto-soy bouillon medium (to be abbreviated TSB) was used as a medium for the growth of test bacterial strains.
(§5) The test compound was diluted with the melted HIA medium to 100 μg/ml as a maximum concentration, and then serially diluted double. The dilutions were poured into sterilized Petri dishes respectively and allowed to cool and solidify to prepare plates containing the test compound.
(§6) The test bacterial strain was cultivated at 37° C. for 18 to 24 hours in the TSB medium. The culture broth was diluted to 50 to 500 times with a freshly prepared TSB culture medium, and one platinum loopful of the dilution was inoculated in each of the plates containing the test compound. The plate was incubated at 37° C. for 18 hours, and the state of growth of the strain on the plate was observed, and the minimum growth inhibitory concentration (MIC) of the test compound was determined.

[2] = tested on: Pseudomonas aeruginosa (F1629); conditions: P. aeruginosa F1629, HIA medium, 37° C., 18 hours, sodium salts
Experimental: as §1, §2, §3, §4, §5, §6

Shigella flexneri (K-A) = conditions: HIA medium, 37° C., 18 hours, sodium salts
Experimental: as §1, §2, §3, §4, §5, §6

[3] = tested on: Klebsiella pneumoniae (ATCC 10031); conditions: read-out: Minimum growth inhibitory concentration
Experimental: as §1, §2, §3, §4, §5, §6

Escherichia coli (K-12) = conditions: E. coli K-12, HIA medium, 37° C., 18 hours, sodium salts
Experimental: as §1, §2, §3, §4, §5, §6

[4] = tested on: Streptococcus faecalis (Hoshi); conditions: Enterococcus faecalis, HIA medium, 37° C., 18 hours, sodium salts
Experimental: as §1, §2, §3, §4, §5, §6

[5] = tested on: Pseudomonas aeruginosa (718); conditions: P. aeruginosa 718, HIA medium, 37° C., 18 hours, sodium salts
Experimental: as §1, §2, §3, §4, §5, §6

[6] = tested on: Klebsiella pneumoniae (B-172); conditions: K. pneumoniae B-172, HIA medium, 37° C., 18 hours, sodium salts
Experimental: as §1, §2, §3, §4, §5, §6

[7] = tested on: Escherichia coli (14H114); conditions: E. coli 14H114, HIA medium, 37° C., 18 hours, sodium salts
Experimental: as §1, §2, §3, §4, §5, §6

[8] = tested on: Enterobacter aerogenes (IFO 3320); conditions: Klebsiella aerogenes, read-out: Minimum growth inhibitory concentration
Experimental: as §1, §2, §3, §4, §5, §6

[9] = tested on: Bacillus cereus (IAM 1792); conditions: IAM1792, HIA medium, 37° C., 18 hours, sodium salts
Experimental: as §1, §2, §3, §4, §5, §6

[10] = tested on: Staphylococcus aureus (Y-8); conditions: S. aureus Y-8, HIA medium, 37° C., 18 hours, sodium salts
Experimental: as §1, §2, §3, §4, §5, §6

[11] = tested on: Pseudomonas aeruginosa (IFO-3901); conditions: IFO3901, P. aeruginosa IFO-3901, HIA medium, 37° C., 18 hours, sodium salts
Experimental: as §1, §2, §3, §4, §5, §6

[12] = tested on: Pseudomonas aeruginosa (NCTC 7244); conditions: NCTC7244, P. aeruginosa NCTC 7244, HIA medium, 37° C., 18 hours, sodium salts
Experimental: as §1, §2, §3, §4, §5, §6

Proteus vulgaris (OX-19) = conditions: read-out: Minimum growth inhibitory concentration
Experimental: as §1, §2, §3, §4, §5, §6

[13] = tested on: Pseudomonas Maltophilia (F-6257); conditions: Stenotrophomonas maltophilia, HIA medium, 37° C., 18 hours, sodium salts
Experimental: as §1, §2, §3, §4, §5, §6

Proteus morganii (C-39) = conditions: Morganella morganii, HIA medium, 37° C., 18 hours, sodium salts
Experimental: as §1, §2, §3, §4, §5, §6

[14] = tested on: Enterobacter cloacae (D-49); conditions: HIA medium, 37° C., 18 hours, sodium salts
Experimental: as §1, §2, §3, §4, §5, §6

Escherichia coli (NIHJ) = conditions: E. coli NIHJ, HIA medium, 37° C., 18 hours, sodium salts
Experimental: as §1, §2, §3, §4, §5, §6

[15] = tested on: Pseudomonas aeruginosa (395); conditions: P. aeruginosa 395, HIA medium, 37° C., 18 hours, sodium salts
Experimental: as §1, §2, §3, §4, §5, §6

[16] = tested on: Pseudomonas aeruginosa (ATCC 10145); conditions: ATCC10145, P. aeruginosa ATCC 10145, HIA medium, 37° C., 18 hours, sodium salts
Experimental: as §1, §2, §3, §4, §5, §6

[17] = tested on: Pseudomonas aeruginosa (S-1); conditions: P. aeruginosa S-1, HIA medium, 37° C., 18 hours, sodium salts
Experimental: as §1, §2, §3, §4, §5, §6

[18] = tested on: Salmonella enteritidis (KB-21); conditions: Salmonella enterica, read-out: Minimum growth inhibitory concentration
Experimental: as §1, §2, §3, §4, §5, §6

[19] = tested on: Staphylococcus aureus (FDA 209P); conditions: FDA209P, read-out: Minimum growth inhibitory concentration
Experimental: as §1, §2, §3, §4, §5, §6

Escherichia coli (26R03) = conditions: E. coli 26R03, HIA medium, 37° C., 18 hours, sodium salts
Experimental: as §1, §2, §3, §4, §5, §6

Proteus rettgeri (T-2) = conditions: Providencia rettgeri, HIA medium, 37° C., 18 hours, sodium salts
Experimental: as §1, §2, §3, §4, §5, §6

[20] = tested on: Citrobacter freundii (F-34); conditions: HIA medium, 37° C., 18 hours, sodium salts
Experimental: as §1, §2, §3, §4, §5, §6

[21] = ATCC10031, K. pneumoniae ATCC 10031, HIA medium, 37° C., 18 hours, sodium salts
[22] = IFO3320, Enterobacter aerogenes IFO 3320, HIA medium, 37° C., 18 hours, sodium salts
[23] = Proteus vulgaris OX-19, HIA medium, 37° C., 18 hours, sodium salts
[24] = Salmonella enteritidis KB-21, HIA medium, 37° C., 18 hours, sodium salts
[25] = S. aureus FDA 209P, HIA medium, 37° C., 18 hours, sodium salts

Structure (SMILES)	MIC [1] [µg/mL]	MIC [2] [µg/mL]	MIC (Shigella flexneri (K-A)) [µg/mL]	MIC (Escherichia coli (K-12)) [µg/mL]	MIC [4] [µg/mL]	MIC [5] [µg/mL]	MIC [6] [µg/mL]	MIC [7] [µg/mL]	MIC [9] [µg/mL]	MIC [10] [µg/mL]	MIC [11] [µg/mL]	MIC [12] [µg/mL]	MIC [13] [µg/mL]	MIC (Proteus morganii (C-39)) [µg/mL]	MIC [14] [µg/mL]	MIC (Escherichia coli (NIHJ)) [µg/mL]	MIC [15] [µg/mL]	MIC [16] [µg/mL]	MIC [17] [µg/mL]	MIC (Escherichia coli (26R03)) [µg/mL]	also measured
Cn1nnnc1SCC1=C(C(=O)O)N2C(=O)C(NC(=O)[C@H](NC(=O)c3cnc4c(c3O)C(=O)CCC4)c3ccccc3)C2SC1 (single isomer, unassigned) [Synthesis Example 1, 7-[D-(-)-α-(4-hydroxy-5-oxo-5,6,7,8-tetrahydroquinoline-3-carboxamide)phenylacetamido)-3-[[(1-methyl-1H-tetrazol-5-yl)thio]methyl]-Δ^3-cephem-4-carboxylic acid]	1.56	6.25	0.2	0.78	25	12.5	0.78	6.25	25	3.13	12.5	12.5	3.13	3.13	6.25	0.78	3.13	12.5	1.56	1.56	MIC [3, 21]: 0.2 µg/mL; MIC [8, 22]: 0.2 µg/mL; MIC (Proteus vulgaris (OX-19); [23]): 1.56 µg/mL; MIC [18, 24]: 0.78 µg/mL; MIC [19, 25]: 1.56 µg/mL; MIC (Proteus rettgeri (T-2)): 1.56 µg/mL; MIC [20]: 0.78 µg/mL
Cn1nnnc1SCC1=C(C(=O)O)N2C(=O)C(NC(=O)[C@H](NC(=O)c3cnc4c(c3O)C(=O)CCC4)c3ccc(O)cc3)C2SC1 (single isomer, unassigned) [Synthesis Example 2, 7-[D-(-)-α-(4-hydroxy-5-oxo-5,6,7,8-tetrahydroquinoline-3-carboxamide)-α-(4-hydroxyphenyl)acetamido]-3-[[(1-methyl-1H-tetrazol-5-yl)thio]methyl]-Δ^3-cephem-4-carboxylic acid]	0.78	3.13	0.1	0.39	25	12.5	0.78	6.25	12.5	3.13	12.5	6.25	6.25	3.13	3.13	0.78	1.56	12.5	1.56	0.78	MIC [3, 21]: 0.39 µg/mL; MIC [8, 22]: 0.2 µg/mL; MIC (Proteus vulgaris (OX-19); [23]): 0.78 µg/mL; MIC [18, 24]: 0.39 µg/mL; MIC [19, 25]: 1.56 µg/mL; MIC (Proteus rettgeri (T-2)): 1.56 µg/mL; MIC [20]: 0.39 µg/mL
CC1(C)S[C@@H]2[C@H](NC(=O)C(C(=O)O)c3ccccc3)C(=O)N2[C@H]1C(=O)O (stereo partly drawn) [CB-PC, disodium-α-carboxybenzyl penicillin, reference compound]	100	> 100	1.56	6.25	50	> 100	25	> 100	100	12.5	100	100	25	6.25	> 100	6.25	25	> 100	25	3.13	MIC [3, 21]: > 100 µg/mL; MIC ([8]; IFO3320, 18 h): 1.56 µg/mL; MIC (Proteus vulgaris (OX-19); [23]): 6.25 µg/mL; MIC ([18]; ENTERITIDIS, 18 h): 1.56 µg/mL; MIC ([19]; 18 h): 1.56 µg/mL; MIC (Proteus rettgeri (T-2)): 3.13 µg/mL; MIC [20]: 3.13 µg/mL
Cc1nnc(SCC2=C(C(=O)O)N3C(=O)[C@@H](NC(=O)Cn4cnnn4)[C@H]3SC2)s1 [CEZ, sodium 7-[1-(1H)-tetrazoylacetamido]-3-[2-(5-methyl-1,3,4-thiadiazoyl)-thiomethyl]-Δ^3, cephem-4-carboxylate, reference compound]	3.13	> 100	1.56	3.13	25	> 100	3.13	6.25	100	0.78	> 100	> 100	> 100	> 100	> 100	3.13	> 100	> 100	> 100	50	MIC ([3]; ATCC10031, 18 h): 1.56 µg/mL; MIC [8, 22]: 3.13 µg/mL; MIC (Proteus vulgaris (OX-19); Proteus vulgaris, 18 h): 1.56 µg/mL; MIC ([18]; ENTERITIDIS, 18 h): 1.56 µg/mL; MIC [19, 25]: 0.2 µg/mL; MIC (Proteus rettgeri (T-2)): 12.5 µg/mL; MIC [20]: 50 µg/mL
